Measurements: US10494376B2, “Tetrahydroisoquinoline derived PRMT5-inhibitors” (CTXT PTY LTD, priority 2014, dated 2019)
Structures can show the parent of a compound that is named as a salt. Where two headings read alike, the source gives them in different places.

Assays:
[1] = biological target: Full-length PRMT5 enzyme (NCBI Reference sequence NP_006100.2) co-expressed with His6-MEP50 (Homo sapiens (Human), UniProt O14744); assay: Revised PRMT5 Biochemical Assay; details: 1 μM peptide substrate, 1 μM S-Adenosyl methionine, 4 hours at 37 degree Celsius, Transcreener EPIGEN fluorescence polarisation
Full-length PRMT5 enzyme (NCBI Reference sequence NP_006100.2) co-expressed with His6-MEP50, sequence (O14744 whole entry): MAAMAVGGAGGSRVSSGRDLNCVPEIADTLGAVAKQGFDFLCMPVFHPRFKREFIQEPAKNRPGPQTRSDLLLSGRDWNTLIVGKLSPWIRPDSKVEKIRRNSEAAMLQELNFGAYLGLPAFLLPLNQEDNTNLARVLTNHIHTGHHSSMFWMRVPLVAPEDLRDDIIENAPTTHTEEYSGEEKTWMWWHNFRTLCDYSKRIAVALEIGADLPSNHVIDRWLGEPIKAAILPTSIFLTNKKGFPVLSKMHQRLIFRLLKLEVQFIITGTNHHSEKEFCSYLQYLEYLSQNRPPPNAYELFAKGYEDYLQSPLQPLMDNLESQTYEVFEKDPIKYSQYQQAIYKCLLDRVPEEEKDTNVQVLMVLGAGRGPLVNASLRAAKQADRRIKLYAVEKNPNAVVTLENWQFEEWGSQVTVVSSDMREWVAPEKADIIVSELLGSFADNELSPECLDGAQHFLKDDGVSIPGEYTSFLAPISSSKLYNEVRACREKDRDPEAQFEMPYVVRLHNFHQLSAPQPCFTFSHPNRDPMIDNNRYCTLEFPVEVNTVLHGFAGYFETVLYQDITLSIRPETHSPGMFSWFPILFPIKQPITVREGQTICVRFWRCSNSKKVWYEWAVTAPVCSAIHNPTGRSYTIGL
Full-length PRMT5 enzyme (NCBI Reference sequence NP_006100.2) co-expressed with His6-MEP50, sequence (Q9BQA1 whole entry partner): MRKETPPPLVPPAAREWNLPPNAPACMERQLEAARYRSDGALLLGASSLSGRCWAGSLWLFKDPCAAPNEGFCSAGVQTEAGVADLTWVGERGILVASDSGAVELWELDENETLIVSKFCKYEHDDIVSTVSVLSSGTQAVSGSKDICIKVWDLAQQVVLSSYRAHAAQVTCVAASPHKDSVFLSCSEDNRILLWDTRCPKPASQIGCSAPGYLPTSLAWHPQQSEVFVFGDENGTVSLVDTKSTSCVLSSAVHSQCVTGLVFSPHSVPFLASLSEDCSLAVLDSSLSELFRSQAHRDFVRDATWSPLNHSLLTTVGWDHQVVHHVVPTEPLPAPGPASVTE
Summary of the method: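 Full-length PRMT5 co-expressed with His6-MEP50 in insect cells (15 ng/reaction) was run with 1 μM H4-derived peptide and 1 μM SAM in PBS, 0.01% Tween-20, 0.01% albumin and 1 mM DTT for 4 h at 37 °C. Product was read by Transcreener EPIGEN fluorescence polarisation, and IC50 came from a 4-parameter fit.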

[2] = test system: symmetrical dimethylation of arginine (Di-Methyl Histone H4 Arginine 3) in cell line TE11; assay: Revised PRMT5 Biomarker Assay (Di-Methyl Histone H4 Arginine 3 immunofluorescence); format: cell-based; details: TE11 cells, 72 hours
Protocol: Compounds of the invention may be tested for potency to inhibit symmetrical dimethylation of arginine in the following assay:
The cell line TE11 was seeded at a density of 6,000 cells per well in 96 well optical quality tissue culture plates in DME medium and 10% foetal bovine serum, and allowed to adhere for 5 hours under standard culture conditions (37 degree Celsius, 5% CO2). […] After incubation for 72 hours, the cells were fixed with 3.7% formaldehyde in PBS for 30 minutes at room temperature, washed with phosphate buffer saline and blocked with Odyssey blocking buffer (LI-COR, Lincoln, Nebr.). Rabbit anti-Di-Methyl Histone H4 Arginine 3 specific antibody (Epigentek) in Odyssey blocking buffer was added and incubated for 14 hours at 4 degree Celsius. […] Alternatively, the plates were imaged on a PerkinElmer Phenix high content imaging platform. […] The resulting mean intensity per cell was directly converted to percent inhibition as outlined above (IC50, imager based).

[3] = Homo sapiens, TE-11, PerkinElmer Envision fluorescence intensity, corrected for Hoechst 33342, read-out: IC50 - plate-reader based
[4] = Homo sapiens, TE-11, PerkinElmer Phenix high content imaging, mean intensity per cell, read-out: IC50 - image based

SMILES	IC50 [1] [nM]	IC50 [2, 3] [nM]	IC50 [2, 4] [nM]	IC50 ([2]; PerkinElmer Phenix high content imaging, mean intensity per cell, read-out: IC50 - image based) [nM]
O=C(NC[C@@H](O)[C@@H]1Cc2ccccc2CN1)c1ccccc1 [Example 3, N-((R)-2-Hydroxy-2-((S)-1,2,3,4-tetrahydroisoquinolin-3-yl)ethyl)benzamide]	8360	1460		
CCOc1ccccc1C(=O)NC[C@@H](O)[C@@H]1Cc2ccccc2CN1 [Example 8, 2-Ethoxy-N-((R)-2-hydroxy-2-((S)-1,2,3,4-tetrahydroisoquinolin-3-yl)ethyl)benzamide]	16500	2320		
O=C(NC[C@@H](O)[C@@H]1Cc2ccccc2CN1)c1ccc(C(=O)N2CCOCC2)cc1F [Example 15, 2-Fluoro-N-((R)-2-hydroxy-2-((S)-1,2,3,4-tetrahydroisoquinolin-3-yl)ethyl)-4-(morpholine-4-carbonyl)benzamide]	383	23		
O=C(NC[C@@H](O)[C@@H]1Cc2ccccc2CN1)c1ccnc(OC2CCNCC2)c1 [Example 21, N-((R)-2-Hydroxy-2-((S)-1,2,3,4-tetrahydroisoquinolin-3-yl)ethyl)-2-(piperidin-4-yloxy)isonicotinamide]	70	87		
O=C(NC[C@@H](O)[C@@H]1Cc2ccccc2CN1)c1ccnc(OC2CCOCC2)c1 [Example 26, N-((R)-2-Hydroxy-2-((S)-1,2,3,4-tetrahydroisoquinolin-3-yl)ethyl)-2-((tetrahydro-2H-pyran-4-yl)oxy)isonicotinamide bis(2,2,2-trifluoroacetic acid) salt]	53	15	3	
COC(=O)N1CCC(Oc2cc(C(=O)NC[C@@H](O)[C@@H]3Cc4ccccc4CN3)ccn2)CC1 [Example 27, Methyl 4-((4-(((R)-2-hydroxy-2-((S)-1,2,3,4-tetrahydroisoquinolin-3-yl)ethyl)carbamoyl)pyridin-2-yl)oxy)piperidine-1-carboxylate bis(2,2,2-trifluoroacetic acid) salt]	44	7		
O=C(NC[C@@H](O)[C@@H]1Cc2ccccc2CN1)c1ccc(C(=O)N2CCOCC2)cc1 [Example 28, N-((R)-2-Hydroxy-2-((S)-1,2,3,4-tetrahydroisoquinolin-3-yl)ethyl)-4-(morpholine-4-carbonyl)benzamide hydrochloride]	180	12		
O=C(NC[C@@H](O)[C@@H]1Cc2ccccc2CN1)c1ccc(C(=O)N2CCS(=O)(=O)CC2)cc1 [Example 37, 4-(1,1-Dioxidothiomorpholine-4-carbonyl)-N-((R)-2-hydroxy-2-((S)-1,2,3,4-tetrahydroisoquinolin-3-yl)ethyl)benzamide]	105	254		
O=C(NC[C@@H](O)[C@@H]1Cc2ccccc2CN1)c1ccc(C(=O)N2C3CCC2COC3)cc1 [Example 49, 4-(3-Oxa-8-azabicyclo[3.2.1]octane-8-carbonyl)-N—((R)-2-hydroxy-2-((S)-1,2,3,4-tetrahydroisoquinolin-3-yl)ethyl)benzamide hydrochloride]	38	6	1	
CCOc1cc(C(=O)N2C3CCC2COC3)ccc1C(=O)NC[C@@H](O)[C@@H]1Cc2ccccc2CN1 [Example 50, 4-(3-Oxa-8-azabicyclo[3.2.1]octane-8-carbonyl)-2-ethoxy-N—((R)-2-hydroxy-2-((S)-1,2,3,4-tetrahydroisoquinolin-3-yl)ethyl)benzamide hydrochloride]	19	0.3	0.3	
CC(=O)N1CCC(Nc2cc(C(=O)NC[C@@H](O)[C@@H]3Cc4ccccc4CN3)ncn2)CC1 [Example 51, 6-((1-Acetylpiperidin-4-yl)amino)-N—((R)-2-hydroxy-2-((S)-1,2,3,4-tetrahydroisoquinolin-3-yl)ethyl)pyrimidine-4-carboxamide dichloride]	61	15		
CCOc1cc(C(=O)N2C3CCCC2COC3)ccc1C(=O)NC[C@@H](O)[C@@H]1Cc2ccccc2CN1 [Example 55, 4-(3-Oxa-9-azabicyclo[3.3.1]nonane-9-carbonyl)-2-ethoxy-N—((R)-2-hydroxy-2-((S)-1,2,3,4-tetrahydroisoquinolin-3-yl)ethyl)benzamide]	16	0.4	0.2	
CCOc1cc(C(=O)N2C3CCC2COC3)c(F)cc1C(=O)NC[C@@H](O)[C@@H]1Cc2ccccc2CN1 [Example 69]	1300	3		
CCOc1cc(CC(=O)N2C3CCC2COC3)ccc1C(=O)NC[C@@H](O)[C@@H]1Cc2ccccc2CN1 [Example 74]	338	5		
CCOc1cc(CC(=O)N2CCCC2)ccc1C(=O)NC[C@@H](O)[C@@H]1Cc2ccccc2CN1 [Example 79, 2-Ethoxy-N-((R)-2-hydroxy-2-((S)-1,2,3,4-tetrahydroisoquinolin-3-yl)ethyl)-4-(2-oxo-2-(pyrrolidin-1-yl)ethyl)benzamide hydrochloride]	168		3	
CCOc1c(C(=O)NC[C@@H](O)[C@@H]2Cc3ccccc3CN2)ccc(C(=O)N2CCOCC2)c1C [Example 80, 2-Ethoxy-N-((R)-2-hydroxy-2-((S)-1,2,3,4-tetrahydroisoquinolin-3-yl)ethyl)-3-methyl-4-(morpholine-4-carbonyl)benzamide hydrochloride]	161	3		
O=C(NC[C@@H](O)[C@@H]1Cc2ccccc2CN1)c1ccc(C(=O)N2C3CCC2COC3)cc1F [Example 81, 4-(3-Oxa-8-azabicyclo[3.2.1]octane-8-carbonyl)-2-fluoro-N-((R)-2-hydroxy-2-((S)-1,2,3,4-tetrahydroisoquinolin-3-yl)ethyl)benzamide hydrochloride]	51	3		
CCOc1cc(C(=O)N2C3CCC2COC3)ncc1C(=O)NC[C@@H](O)[C@@H]1Cc2ccccc2CN1 [Example 82, 6-(3-Oxa-8-azabicyclo[3.2.1]octane-8-carbonyl)-4-ethoxy-N-((R)-2-hydroxy-2-((S)-1,2,3,4-tetrahydroisoquinolin-3-yl)ethyl)nicotinamide dihydrochloride]	106		8	
O=C(NC[C@@H](O)[C@@H]1Cc2ccccc2CN1)c1ccc(C(=O)N2C3CCC2COC3)cc1Cl [Example 83, 4-(3-Oxa-8-azabicyclo[3.2.1]octane-8-carbonyl)-2-chloro-N-((R)-2-hydroxy-2-((S)-1,2,3,4-tetrahydroisoquinolin-3-yl)ethyl)benzamide]	65	4		
O=C(NC[C@@H](O)[C@@H]1Cc2ccccc2CN1)c1ccc2nc(C(F)(F)F)[nH]c2c1 [Example 84, N-((R)-2-Hydroxy-2-((S)-1,2,3,4-tetrahydroisoquinolin-3-yl)ethyl)-2-(trifluoromethyl)-1H-benzo[d]imidazole-6-carboxamide dihydrochloride]	124	81		
COC(=O)N1CCC(Oc2ccc(C(=O)NC[C@@H](O)[C@@H]3Cc4ccccc4CN3)cn2)CC1 [Example 100, Methyl 4-((5-(((R)-2-hydroxy-2-((S)-1,2,3,4-tetrahydroisoquinolin-3-yl)ethyl)carbamoyl)pyridin-2-yl)oxy)piperidine-1-carboxylate]	66		11	
O=C(NC[C@@H](O)[C@@H]1Cc2ccccc2CN1)c1ccc(N2CCOCC2)nc1 [Example 101, N—((R)-2-Hydroxy-2-((S)-1,2,3,4-tetrahydroisoquinolin-3-yl)ethyl)-6-morpholinonicotinamide]	104		10	
CC(=O)N1CCC(Oc2cc(C(=O)NC[C@@H](O)[C@@H]3Cc4ccccc4CN3)ccn2)CC1 [Example 102, 2-((1-Acetylpiperidin-4-yl)oxy)-N—((R)-2-hydroxy-2-((S)-1,2,3,4-tetrahydroisoquinolin-3-yl)ethyl)isonicotinamide]	68	5		
O=C(NC[C@@H](O)[C@@H]1Cc2ccccc2CN1)c1ccc(C(=O)N2C3CCCC2COC3)cc1 [Example 103, 4-(3-Oxa-9-azabicyclo[3.3.1]nonane-9-carbonyl)-N—((R)-2-hydroxy-2-((S)-1,2,3,4-tetrahydroisoquinolin-3-yl)ethyl)benzamide]	65	4		
O=C(NC[C@@H](O)[C@@H]1Cc2ccccc2CN1)c1ccnc(OC2CCOC2)c1 (stereo partly drawn) [Example 104, N—((R)-2-Hydroxy-2-((S)-1,2,3,4-tetrahydroisoquinolin-3-yl)ethyl)-2-((tetrahydrofuran-3-yl)oxy)isonicotinamide bis(2,2,2-trifluoroacetate)]	147		12	
COC(=O)N1[C@@H]2CC[C@H]1C[C@@H](Oc1cc(C(=O)NC[C@@H](O)[C@@H]3Cc4ccccc4CN3)ccn1)C2 [Example 105, Methyl (1R,3r,5S)-3-((4-(((R)-2-hydroxy-2-((S)-1,2,3,4-tetrahydroisoquinolin-3-yl)ethyl)carbamoyl)pyridin-2-yl)oxy)-8-azabicyclo[3.2.1]octane-8-carboxylate]	38			1
